Format in all cases: cell-based
One experiment relates to Pyricularia oryzae. Briefly: microbe, parasite or virus in culture. The note with it: for Observed efficacy: single active compound.
For a further experiment, the system named is Botrytis cinerea. Briefly: Activity against the grey mold Botrytis cinerea in the microtiterplate test.
For a further experiment, the system named is Septoria tritici. Briefly: Activity against leaf blotch on wheat caused by Septoria tritici (microtiterplate test).
Setting [1] is: Pyricularia oryzae, 168 h, read-out: Observed efficacy.
Where [2] appears, read: Zymoseptoria tritici, 168 h, single active, 0.004 ppm, read-out: Observed efficacy.
Where [3] appears, read: Zymoseptoria tritici, 168 h, single active, 0.063 ppm, read-out: Observed efficacy.
Setting [4] is: single active compound, 0.063 ppm.
Where [5] appears, read: single active compound, 0.25 ppm.
Setting [6] is: Botrytis cinerea, 168 h, single active compound, read-out: Observed efficacy.
Setting [7] is: Zymoseptoria tritici, 168 h, single active, 4 ppm, read-out: Observed efficacy.
The mark [8] stands for this setting: Zymoseptoria tritici, 168 h, single active, 0.25 ppm, read-out: Observed efficacy.
Setting [9] is: Botrytis cinerea, 168 h, read-out: Observed efficacy.
[10] abbreviates: Botrytis cinerea, 168 h, single active compound, 4 ppm, read-out: Observed efficacy.
The mark [11] stands for this setting: Botrytis cinerea, 168 h, single active compound, 1 ppm, read-out: Observed efficacy.
[12] abbreviates: Zymoseptoria tritici, 168 h, single active, 0.016 ppm, read-out: Observed efficacy.
Where [13] appears, read: Zymoseptoria tritici, 168 h, single active, 1 ppm, read-out: Observed efficacy.
[14] abbreviates: Zymoseptoria tritici, 168 h, single active, read-out: Observed efficacy.
Setting [15] is: Zymoseptoria tritici, 168 h, read-out: Observed efficacy.

Where two headings read alike, the source gives them in different places.

Our source for the Observed efficacy and inhibition of growth values is patent publication US11839214B2, “Fungicidal mixture comprising substituted pyridines” (BASF SE, priority 2017, dated 2023).

`Cc1cc(OC(C)C)ccc1C(=O)C(C)(C)NC(=O)c1sccc1C` [Isofetamid, isofetamid]: the Observed efficacy in the experiment with Pyricularia oryzae (1 ppm) is listed as 1%; with Pyricularia oryzae (4 ppm), 10%; in the experiment on Botrytis cinerea (single active compound, 1 ppm), 68%; in the experiment on Septoria tritici (single active, 0.25 ppm) it was 44%.
Take `Cc1cccc(-n2nnn(C)c2=O)c1COc1ccn(-c2ccc(Cl)cc2)n1` [Methyltetraprol, metyltetrapole]: the Observed efficacy with Pyricularia oryzae (0.016 ppm) was 24%; with Septoria tritici (single active, 0.004 ppm), 5%; in the experiment with Septoria tritici (single active, 0.016 ppm), 22%.
Consider `FC(F)C(F)(F)OCC(Cn1cncn1)c1ccc(Cl)cc1Cl` (centres unmarked) [Tetraconazol, tetraconazole], for which the inhibition of growth at 0.063 ppm in the experiment with Pyricularia oryzae (setting [1]) is 7%; with Botrytis cinerea (Botrytis cinerea, 168 h, single active compound, 0.063 ppm, read-out: Observed efficacy), 5%; in the experiment with Septoria tritici (setting [3]), 12%. Also, the inhibition of growth at 0.004 ppm in the experiment with Septoria tritici (setting [2]) is 6%.
In the case of `CNC(=O)/C(=N/OC)c1ccccc1COc1cc(C)ccc1C` [Dimoxystrobin, dimoxystrobin], the Observed efficacy is given as 0% with Botrytis cinerea (setting [4]); 12% with Botrytis cinerea (setting [5]); 2% in the experiment on Septoria tritici (single active, 0.016 ppm); 27% with Septoria tritici (single active, 0.063 ppm).
For the molecule `C=CCOC1=NS(=O)(=O)c2ccccc21` [Probenazol, probenazole], in the experiment with Pyricularia oryzae (setting [1]), the inhibition of growth at 4 ppm stood at 2% and the inhibition of growth at 16 ppm was determined as 12%. Also, the inhibition of growth at 63 ppm in the experiment on Botrytis cinerea (setting [6]) is 22%. The inhibition of growth at 4 ppm in the experiment with Septoria tritici (setting [7]) turned out to be 4%.
Take `CNC(=O)C(OC)c1ccccc1COc1cc(C)ccc1C` (centres unmarked) [Mandestrobin, mandestrobin]: the Observed efficacy in the experiment with Pyricularia oryzae (1 ppm) stood at 9%; in the experiment with Septoria tritici (single active, 1 ppm), 11%.
Take `CC(C)c1ccc(Cl)cc1CN(C(=O)c1c(C(F)F)nn(C)c1F)C1CC1` [Isoflucypram, isoflucypram]: the Observed efficacy amounted to 14% in the experiment on Pyricularia oryzae (1 ppm); 59% in the experiment on Botrytis cinerea (setting [5]); 72% in the experiment on Septoria tritici (single active, 0.063 ppm).
Take `O=C(NCCc1ncc(C(F)(F)F)cc1Cl)c1ccccc1C(F)(F)F` [Fluopyram, fluopyram]: the inhibition of growth at 0.25 ppm in the experiment with Pyricularia oryzae (setting [1]) is 7%; in the experiment with Septoria tritici (setting [8]) it was 23%.
`O=C1CCc2cccc3c2N1CC3` [Pyroquilon, pyroquilon]: the inhibition of growth at 1 ppm amounted to 7% in the experiment on Pyricularia oryzae (setting [1]) and 2% in the experiment with Botrytis cinerea (setting [9]).
Regarding `Cc1ccc(C(=O)OCc2ccc(Oc3ccccc3)cc2)c(N)n1` [Aminopyrifen, aminopyrifen], the Observed efficacy in the experiment on Pyricularia oryzae (0.001 ppm) was determined as 0%; in the experiment on Pyricularia oryzae (0.004 ppm) it was 6%; in the experiment with Pyricularia oryzae (0.016 ppm), 36%.
On to `COCC(=O)N(c1c(C)cccc1C)C(C)C(=O)OC` (centres unmarked) [Metalaxyl, metalaxyl], for which, in the experiment with Pyricularia oryzae (setting [1]), the inhibition of growth at 1 ppm stood at 4% and the inhibition of growth at 4 ppm was 11%. For the same molecule, the inhibition of growth at 4 ppm with Botrytis cinerea (setting [10]) was found to be 19%.
In the case of `CC#Cc1cc(C)nc(Nc2ccccc2)n1` [Mepanipyrim, mepanipyrim], in the experiment with Pyricularia oryzae (setting [1]), the inhibition of growth at 0.25 ppm amounted to 3%, the inhibition of growth at 1 ppm was determined as 45% and the inhibition of growth at 4 ppm amounted to 64%. The inhibition of growth at 1 ppm in the experiment on Botrytis cinerea (setting [11]) was found to be 63%. Further, in the experiment on Botrytis cinerea (setting [10]), the inhibition of growth at 4 ppm is 72%.
As to `COC(=O)N(OC)c1ccccc1COc1ccn(-c2ccc(Cl)cc2)n1` [Pyraclostrobin, pyraclostrobin], the inhibition of growth at 0.001 ppm with Pyricularia oryzae (setting [1]) was 4%. In addition, the inhibition of growth at 0.004 ppm was 14% with Pyricularia oryzae (setting [1]) and 7% in the experiment with Septoria tritici (setting [2]). Moreover, the inhibition of growth at 0.016 ppm with Septoria tritici (setting [12]) is 52%.
Consider `CC1(C)CCC(=Cc2ccc(Cl)cc2)C1(O)Cn1cncn1` (centres unmarked) [Triticonazol, triticonazole], for which the inhibition of growth at 1 ppm with Pyricularia oryzae (setting [1]) turned out to be 10%.
Take `O=C(Nc1ccccc1-c1ccc(Cl)cc1)c1cccnc1Cl` [Boscalid, boscalid]: in the experiment with Pyricularia oryzae (setting [1]), the inhibition of growth at 0.25 ppm turned out to be 2% and the inhibition of growth at 4 ppm was 10%. Moreover, the inhibition of growth at 1 ppm in the experiment with Botrytis cinerea (setting [11]) was determined as 63%. Besides, the inhibition of growth at 1 ppm in the experiment with Septoria tritici (setting [13]) worked out at 58%.
With `Cc1ccc(NC(=O)c2snnc2C)cc1Cl` [Tiadinil, tiadinil], the inhibition of growth at 4 ppm in the experiment on Pyricularia oryzae (setting [1]) was 2%; with Septoria tritici (setting [7]) it was 21%. For the same molecule, the results for the inhibition of growth at 16 ppm in the experiment with Pyricularia oryzae (setting [1]), in the experiment on Botrytis cinerea (setting [6]) and in the experiment with Septoria tritici (setting [14]) were 10%, 6% and 18%, respectively. Besides, the inhibition of growth at 63 ppm in the experiment on Pyricularia oryzae (setting [1]) was 21%; in the experiment on Botrytis cinerea (setting [6]) it was 19%; in the experiment with Septoria tritici (Zymoseptoria tritici, 168 h, single active, 63 ppm, read-out: Observed efficacy), 30%.
In the case of `OC(Cc1ccccc1Cl)(Cn1nc[nH]c1=S)C1(Cl)CC1` (centres unmarked) [Prothioconazol, prothioconazole], the inhibition of growth at 0.25 ppm with Pyricularia oryzae (setting [1]) stood at 12%. For the same molecule, in the experiment on Septoria tritici (setting [3]), the inhibition of growth at 0.063 ppm was 1%.
For `Cc1cccc2sc3nncn3c12` [Tricyclazol, tricyclazole], the inhibition of growth at 4 ppm worked out at 6% in the experiment on Pyricularia oryzae (setting [1]) and 2% in the experiment with Botrytis cinerea (setting [10]).
As to `COc1ccnc(C(=O)N[C@@H](C)C(=O)O[C@@H](C)C(c2ccc(F)cc2)c2ccc(F)cc2)c1OC(C)=O` [Florylpicoxamid, florylpicoxamid], the Observed efficacy is 49% in the experiment on Pyricularia oryzae (0.016 ppm); 2% with Botrytis cinerea (setting [5]); 12% in the experiment with Botrytis cinerea (single active compound, 1 ppm); 54% with Septoria tritici (single active, 0.063 ppm); 79% in the experiment with Septoria tritici (single active, 0.25 ppm).
On to `CO/C=C(/C(=O)OC)c1ccccc1Oc1cc(Oc2ccccc2C#N)ncn1` [Azoxystrobin, azoxystrobin], for which the Observed efficacy is reported as 4% in the experiment on Pyricularia oryzae (0.004 ppm); 44% in the experiment on Pyricularia oryzae (0.016 ppm); 5% in the experiment on Botrytis cinerea (setting [4]); 5% with Septoria tritici (single active, 0.004 ppm); 2% in the experiment on Septoria tritici (single active, 0.016 ppm); 26% in the experiment on Septoria tritici (single active, 0.063 ppm).
With `COc1cc(C2=NC(C)(C)C(F)(F)c3ccccc32)cnc1C(F)F` [Compound 1-4], the inhibition of growth at 0.063 ppm in the experiment with Pyricularia oryzae (setting [1]) worked out at 18%. In addition, the inhibition of growth at 0.25 ppm was determined as 23% in the experiment with Pyricularia oryzae (setting [1]) and 7% with Septoria tritici (setting [8]). Moreover, the inhibition of growth at 1 ppm in the experiment on Pyricularia oryzae (setting [1]) was 29%; in the experiment with Botrytis cinerea (setting [11]), 12%; in the experiment with Septoria tritici (setting [13]) it was 8%. Moreover, the inhibition of growth at 4 ppm in the experiment with Pyricularia oryzae (setting [1]) amounted to 42%; with Botrytis cinerea (setting [10]), 21%; with Septoria tritici (setting [7]) it was 1%. Also, the inhibition of growth at 16 ppm is 41% with Botrytis cinerea (setting [6]) and 17% in the experiment on Septoria tritici (setting [14]).
As to `C=CCOC(Cn1ccnc1)c1ccc(Cl)cc1Cl` (centres unmarked) [Imazalil, imazalil], the inhibition of growth at 1 ppm worked out at 20% in the experiment on Pyricularia oryzae (setting [1]) and 54% in the experiment on Botrytis cinerea (setting [11]).
Take `Cc1nc2c(F)c(F)ccc2cc1Oc1cccc(F)c1C(C)(C)O` [drawing 43]: the inhibition of growth at 1 ppm in the experiment on Septoria tritici (setting [15]) was determined as 45%.
With metiram, the Observed efficacy with Pyricularia oryzae (4 ppm) came out at 8%; in the experiment on Septoria tritici (single active, 1 ppm), 2%; with Septoria tritici (single active, 4 ppm), 4%.
For `CC1(C)CCC(Cc2ccc(Cl)cc2)C1(O)Cn1cncn1` (centres unmarked) [Metconazol], in the experiment on Septoria tritici (single active, 0.063 ppm), the Observed efficacy is 30%.
Take `Cc1cc(C2CC2)nc(Nc2ccccc2)n1` [Cyprodinil, cyprodinil]: the inhibition of growth at 1 ppm with Pyricularia oryzae (setting [1]) worked out at 50%. Besides, the inhibition of growth at 4 ppm in the experiment on Pyricularia oryzae (setting [1]) came to 61%; with Botrytis cinerea (setting [10]), 53%; in the experiment with Septoria tritici (setting [7]), 10%.
Consider `CC1COC(Cn2cncn2)(c2ccc(Oc3ccc(Cl)cc3)cc2Cl)O1` (centres unmarked) [Difenoconazol, difenoconazole], for which, in the experiment on Pyricularia oryzae (setting [1]), the inhibition of growth at 0.063 ppm came to 2%. Also, the inhibition of growth at 0.25 ppm in the experiment on Pyricularia oryzae (setting [1]) was found to be 11%; in the experiment on Botrytis cinerea (Botrytis cinerea, 168 h, single active compound, 0.25 ppm, read-out: Observed efficacy), 21%. The inhibition of growth at 0.016 ppm in the experiment on Septoria tritici (setting [12]) was 22%.
On to prohexadione-calcium [Prohexadion-ca], for which the Observed efficacy with Pyricularia oryzae (63 ppm) was determined as 8%; in the experiment on Septoria tritici (single active, 63 ppm) it was 12%.
As for `Cn1cc(C(=O)Nc2ccccc2-c2cc(F)c(F)c(F)c2)c(C(F)F)n1` [Fluxapyroxad, fluxapyroxad], the Observed efficacy in the experiment with Pyricularia oryzae (0.063 ppm) stood at 8%; in the experiment on Botrytis cinerea (setting [4]), 28%; with Septoria tritici (single active, 0.063 ppm), 24%.
In the case of `Cc1nc(C(F)(F)F)c(C(=O)Nc2c(Br)cc(OC(F)(F)F)cc2Br)s1` [Thifluzamid, thifluzamide], in the experiment with Pyricularia oryzae (setting [1]), the inhibition of growth at 1 ppm was determined as 2%. The results for the inhibition of growth at 4 ppm in the experiment on Pyricularia oryzae (setting [1]), in the experiment on Botrytis cinerea (setting [9]) and with Septoria tritici (setting [15]) were 16%, 37% and 69%, respectively.
For inpyrfluxam, the Observed efficacy is on record as 44% in the experiment with Botrytis cinerea (setting [5]) and 22% in the experiment with Septoria tritici (single active, 0.25 ppm).
With `Cc1nc2c(F)c(F)ccc2cc1Oc1cccc(F)c1C(C)(C)O` [drawing 29], the inhibition of growth at 4 ppm with Pyricularia oryzae (setting [1]) was found to be 50%.
For `S1SSSSSSS1` [Sulfur, sulfur], in the experiment with Pyricularia oryzae (setting [1]), the inhibition of growth at 4 ppm stood at 54%. Besides, in the experiment on Septoria tritici (setting [15]), the inhibition of growth at 1 ppm was 18%.
Turning to `CC(O)(Cn1cncn1)c1ccc(Oc2ccc(Cl)cc2)cc1C(F)(F)F` (centres unmarked) [Mefentrifluconazol, mefentrifluconazole], the Observed efficacy in the experiment with Pyricularia oryzae (0.016 ppm) is recorded as 7%; in the experiment with Botrytis cinerea (single active compound, 0.016 ppm), 10%.
Turning to `CON(C(=O)c1cn(C)nc1C(F)F)C(C)Cc1c(Cl)cc(Cl)cc1Cl` (centres unmarked) [Pydiflumetofen, pydiflumetofen], the Observed efficacy in the experiment with Pyricularia oryzae (1 ppm) amounted to 44%.
Mancozeb registered an Observed efficacy in the experiment on Septoria tritici (single active, 1 ppm) of 16%.
In the case of `OCC1=C[C@H](N[C@H]2C[C@H](CO)[C@@H](O[C@@H]3O[C@H](CO)[C@@H](O)[C@H](O)[C@H]3O)[C@H](O)[C@H]2O)[C@H](O)[C@@H](O)[C@@H]1O` [Validamycin, validamycin], in the experiment on Pyricularia oryzae (setting [1]), the inhibition of growth at 63 ppm is 10%.
